Assays:
human DGAT1 = target: T1, human DGAT1 (Homo sapiens, UniProt O75907); experiment: DGAT Scintillation Proximity Assay (SPA) with membranes of insect cells expressing human flagtag DGAT1; format: biochemical; details: read-out: hDGAT1 IC50
T1 construct: made in house; host or cells: insect cells (sf9, sf21 or High Five) infected with baculovirus; total cell membranes
T1 sequence (O75907 1-488): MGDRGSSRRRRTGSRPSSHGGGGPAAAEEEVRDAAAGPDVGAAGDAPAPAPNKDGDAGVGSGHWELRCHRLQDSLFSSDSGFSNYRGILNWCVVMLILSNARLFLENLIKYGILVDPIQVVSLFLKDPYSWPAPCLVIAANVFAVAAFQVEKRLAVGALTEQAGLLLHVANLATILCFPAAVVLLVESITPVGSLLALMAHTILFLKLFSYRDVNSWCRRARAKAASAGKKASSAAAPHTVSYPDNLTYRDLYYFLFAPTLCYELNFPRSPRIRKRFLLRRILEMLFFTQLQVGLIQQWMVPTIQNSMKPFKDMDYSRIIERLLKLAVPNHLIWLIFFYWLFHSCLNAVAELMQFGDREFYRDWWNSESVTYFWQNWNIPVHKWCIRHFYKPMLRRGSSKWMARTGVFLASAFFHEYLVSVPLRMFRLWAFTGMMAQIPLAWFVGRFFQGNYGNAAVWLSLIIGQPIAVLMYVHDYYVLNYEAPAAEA
Protocol: In such an assay human DGAT1 is cloned from a human liver cDNA library. PCR is used to add a restriction site and flag epitope at the most 5′ end and a restriction site at the 3′ end of the sequence. Thereafter, human flagtag (FT) DGAT1 baculovirus may be generated using a Bac-to-Bac Baculovirus Expression System® (Invitrogen). Insect cells (e.g., sf9, sf2 1, or High Five) are infected for 24 to 72 h and collected by centrifugation. Cell pellets are resuspended in homogenization buffer and lysed using a homogenization device, such as a Microfluidizer. Total cell membranes are collected by ultracentrifugation at 45,000 rpm for 1 h.
A small aliquot (0.2 μg/well) of membrane is incubated with 10 μM compound or mercuric chloride (as positive control for inhibition) in the presence of enzyme substrate, dioleoyl glycerol (200 μM) in 384 well plates, final volume 50 gL per well. […] The reaction is stopped by adding Wheat Germ Agglutinin (WGA) SPA beads (0.2 mg) in mercuric chloride. Cell membranes are allowed to couple to the beads overnight. The signal can be measured using, for example, a Chemiluminescence Image Plate Reader (CLIPR) or TopCount device.

melting point	IC50 (human DGAT1) [nM]	SMILES
> 200 °C		Nc1ncnc2c1N=C(c1ccc(Br)cc1)CO2
222 to 224 °C		CC1Oc2ncnc(N)c2N=C1c1ccc(Br)cc1 (stereo not drawn)
> 220 °C		Cc1nc(N)c2c(n1)OCC(c1ccc(Br)cc1)=N2
> 200 °C		Nc1ncnc2c1NC(c1ccc(Br)cc1)CO2 (stereo not drawn)
201 to 203 °C		CC1(C)Oc2ncnc(N)c2N=C1c1ccc(Br)cc1
> 250 °C		Cc1nc(N)c2c(n1)OC(C)(C)C(c1ccc([C@H]3CC[C@H](CC(=O)O)CC3)cc1)=N2
> 220 °C		CC1(C)Oc2ncnc(N)c2NC1c1ccc(Br)cc1 (stereo not drawn)
210 to 211 °C		CC1(C)Oc2ncnc(N)c2N=C1c1ccc(Cl)cc1
161 to 162 °C		Cc1ccc(C2=Nc3c(N)ncnc3OC2(C)C)cc1
189 to 190 °C		CC1(C)Oc2ncnc(N)c2N=C1c1ccc(F)cc1
186 to 187 °C		CC1(C)Oc2ncnc(N)c2N=C1c1ccc(C2CCCCC2)cc1
224 to 226 °C		CC1(C)Oc2ncnc(N)c2N=C1c1ccc([C@H]2CC[C@H](CC(N)=O)CC2)cc1
> 250 °C		CC1(C)Oc2ncnc(N)c2N=C1c1ccc([C@H]2CC[C@H](C(=O)O)CC2)cc1
> 250 °C		CC1(C)Oc2ncnc(N)c2N=C1c1ccc([C@H]2CC[C@H](CS(N)(=O)=O)CC2)cc1
183 to 184 °C		COc1ccc(C2=Nc3c(N)ncnc3OC2(C)C)cc1
245 to 246 °C		CC1(C)Oc2ncnc(N)c2N=C1c1ccc(O)cc1
218 to 219 °C		CC1(C)Oc2ncnc(N)c2N=C1c1ccc(-c2ccccc2)cc1
> 240 °C		CC1(C)Oc2ncnc(N)c2N=C1c1ccc(C2CCC(=O)CC2)cc1
185 to 186 °C		CCCc1ccc(C2=Nc3c(N)ncnc3OC2(C)C)cc1
220 °C		CC1(C)Oc2ncnc(N)c2N=C1c1ccc(C(C)(C)C)cc1
135 to 136 °C		CCc1ccc(C2=Nc3c(N)ncnc3OC2(C)C)cc1
175 to 179 °C		CC(C)c1ccc(C2=Nc3c(N)ncnc3OC2(C)C)cc1
157 to 160 °C		CCCCc1ccc(C2=Nc3c(N)ncnc3OC2(C)C)cc1
> 250 °C		CC1(C)Oc2ncnc(N)c2N=C1c1ccc([C@H]2CC[C@H](CCC(=O)O)CC2)cc1

melting point	IC50 (human DGAT1) [nM]	SMILES
226 to 227 °C		CC1(C)Oc2ncnc(N)c2N=C1c1ccc(C2CCC(F)(F)CC2)cc1
246 to 248 °C		CC1(C)Oc2ncnc(N)c2N=C1c1ccc(C2CCC(O)CC2)cc1 (stereo not drawn)
> 270 °C		CC1(C)Oc2ncnc(N)c2N=C1c1ccc(-c2ccc(CC(=O)O)cc2)cc1
> 250 °C		CC1(C)Oc2ncnc(N)c2N=C1c1ccc(C(C)(C)C(=O)O)cc1
> 250 °C		CC1(C)Oc2ncnc(N)c2N=C1c1ccc([C@H]2CC[C@H](Cc3nn[nH]n3)CC2)cc1
189 to 190 °C		CC1(C)Oc2ncnc(N)c2N=C1c1ccccc1
191 to 193 °C		CC1(C)Oc2ncnc(N)c2N=C1c1ccc(N2CCCCC2)cc1
214 to 219 °C		CC1(C)Oc2ncnc(N)c2N=C1c1ccc(N2CCOCC2)cc1
> 220 °C	> 100	Nc1ncnc2c1N=C(c1ccc(F)cc1)CO2 [Example 1-2]
> 220 °C	> 100	Nc1ncnc2c1N=C(c1ccc(Cl)cc1)CO2 [Example 1-3]
217 to 219 °C	> 100	Cc1ccc(C2=Nc3c(N)ncnc3OC2)cc1 [Example 1-4]
206 °C (dec.)	> 100	CCN(CC)c1ccc(C2=Nc3c(N)ncnc3OC2)cc1 [Example 1-6]
> 220 °C	> 100	Nc1ncnc2c1N=C(c1cccc(Br)c1)CO2 [Example 1-7]
> 220 °C	> 100	Nc1ncnc2c1N=C(c1ccc(C(F)(F)F)cc1)CO2 [Example 1-8]
176 to 178 °C	> 100	CC(C)c1ccc(C2=Nc3c(N)ncnc3OC2)cc1 [Example 1-9]
> 250 °C	> 100	Nc1ncnc2c1N=C(c1ccc(-c3ccccc3)cc1)CO2 [Example 1-11]
191 to 193 °C	> 100	COc1ccc(C2=Nc3c(N)ncnc3OC2)cc1 [Example 1-12]
> 250 °C	> 100	Nc1ncnc2c1N=C(c1ccc([N+](=O)[O-])cc1)CO2 [Example 1-13]
75 to 77 °C	> 100	Nc1cccc2c1N=C(c1ccc(Br)cc1)CO2 [Example 1-15]
215 °C	> 100	Nc1ncnc2c1N=C(c1ccccn1)CO2 [Example 1-16]
> 220 °C	> 100	Nc1ncnc2c1N=C(c1ccncc1)CO2 [Example 1-18]
191 to 193 °C	> 100	CCc1ccc(C2=Nc3c(N)ncnc3OC2)cc1 [Example 1-19]
189 to 192 °C	> 100	CCCc1ccc(C2=Nc3c(N)ncnc3OC2)cc1 [Example 1-20]
183 to 186 °C	> 100	CCCCc1ccc(C2=Nc3c(N)ncnc3OC2)cc1 [Example 1-21]

melting point	IC50 (human DGAT1) [nM]	SMILES
142 °C	> 100	Nc1ncnc2c1N=C(C1CCCCC1)CO2 [Example 1-22]
209 to 212 °C	> 100	Nc1ncnc2c1N=C(c1ccc(OC(F)(F)F)cc1)CO2 [Example 1-23]
228 to 229 °C		Cc1nc(N)c2c(n1)OC(C)(C)C(c1ccc([C@H]3CC[C@H](CN4CCCC(O)C4=O)CC3)cc1)=N2 (stereo partly drawn) [Example 2-170]
198 to 200 °C		Cc1nc(N)c2c(n1)OC(C)(C)C(c1ccc([C@H]3CC[C@H](CCc4noc(C(F)(F)F)n4)CC3)cc1)=N2 [Example 2-199]
> 300 °C		Cc1nc(N)c2c(n1)OC(C)(C)C(c1ccc([C@H]3CC[C@H](Cc4n[nH]c(=O)[nH]4)CC3)c(Cl)c1)=N2 [Example 6-5]
> 282 °C		Cc1nc(N)c2c(n1)OC(C)(C)C(c1ccc([C@H]3CC[C@H](Cc4noc(=O)[nH]4)CC3)c(Cl)c1)=N2 [Example 6-6]
> 280 °C		Cc1nc(N)c2c(n1)OC(C)(C)C(c1ccc([C@H]3CC[C@H](CC(=O)O)CC3)c(O)c1)=N2 [Example 6-7]
	10 to 100	CCc1nc(N)c2c(n1)OC(C)(C)C(c1ccc(C3CCC(CC(=O)O)CC3)cc1)=N2 (stereo not drawn) [Example 10-18]
	10 to 100	CC1(C)Oc2nc(C(F)(F)F)nc(N)c2N=C1c1ccc(C2CCC(C3(C(=O)O)CC3)CC2)cc1 (stereo not drawn) [Example 10-19]
	10 to 100	CC1(C)Oc2nc(C(F)(F)F)nc(N)c2N=C1c1ccc(C2CCC(C(C)(C)C(=O)O)CC2)cc1 (stereo not drawn) [Example 10-20]
	10 to 100	Cc1nc(N)c2c(n1)OC(C)(C)C(c1ccc(C3CCC(C4(C(=O)O)CC4)CC3)cc1)=N2 (stereo not drawn) [Example 10-21]
	10 to 100	Cc1nc(N)c2c(n1)OC(C)(C)C(c1ccc([C@H]3CC[C@H](CC(=O)O)CC3)c(C)c1)=N2 [Example 10-22]
	10 to 100	CCc1nc(N)c2c(n1)OC(C)(C)C(c1ccc([C@H]3CC[C@H](CC(=O)O)CC3)cc1)N2 (stereo partly drawn) [Example 10-23]
	10 to 100	Cc1nc(N)c2c(n1)OC(C)(C)C(c1ccc3c(c1)CCC31CCC(C3(C(=O)O)CC3)CC1)=N2 (stereo not drawn) [Example 10-24]
	10 to 100	CC1(C)Oc2nc(C(F)(F)F)nc(N)c2N=C1c1ccc2c(c1)CCC21CCC(C2(C(=O)O)CC2)CC1 (stereo not drawn) [Example 10-25]
	10 to 100	CC1(C)Oc2nc(C(F)(F)F)nc(N)c2N=C1c1ccc2c(c1)CCC21CCC(C(C)(C)C(=O)O)CC1 (stereo not drawn) [Example 10-26]
	10 to 100	CCC(C(=O)O)C1CCC(c2ccc(C3=Nc4c(N)nc(C)nc4OC3(C)C)cc2)CC1 (stereo not drawn) [Example 10-27]
	< 10	CCC(C(=O)O)C1CCC(c2ccc(C3=Nc4c(N)nc(C(F)(F)F)nc4OC3(C)C)cc2)CC1 (stereo not drawn) [Example 10-28]
	10 to 100	Cc1nc(N)c2c(n1)OC(C)(C)C(c1ccc(CC3CCC(C(=O)O)CC3)cc1)=N2 (stereo not drawn) [Example 10-29]
	10 to 100	Cc1nc(N)c2c(n1)OC(C)(C)C(c1ccc([C@H]3CC[C@H](C(C)C(=O)O)CC3)cc1)=C2 (stereo partly drawn) [Example 10-30]
	10 to 100	CC(C(=O)O)[C@H]1CC[C@H](c2ccc(C3=Cc4c(N)ncnc4OC3(C)C)cc2)CC1 (stereo partly drawn) [Example 10-31]
	< 10	CCC(C(=O)O)C1CCC(c2ccc(C3=Nc4c(N)ncnc4OC3(C)C)cc2)CC1 (stereo not drawn) [Example 10]

SMILES	melting point	IC50 (human DGAT1) [nM]
Nc1ncnc2c1N=C(c1cccnc1)CO2 [Example 1-17]	> 220 °C	> 100

Reference: US7244727B2, “Fused bicyclic nitrogen-containing heterocycles” (Japan Tobacco Inc., priority 2002, dated 2007)
